The source of these data is PMC7349657, “Efficient Targeted Degradation via Reversible and Irreversible Covalent PROTACs” (Journal of the American Chemical Society, 2020).

One series relates to C481S BTK. Kind of series: In vitro kinase activity assay, C481S BTK (Nanosyn). Conditions: 2 h preincubation.
The test system of another series is Ramos cells. In words: Metabolomic quantification of PROTAC cellular concentration. It counts as in vitro ADME, human. The note with it: 2 hours; for Effective cellular concentration: 100 nM compound; for effective cellular concentration relative to IR-2 / effective cellular concentration relative to RC-2: 100 nM. As to the method: Raw data were analyzed using the MaxQuant software suite 1.6.0.16
(www.maxquant.org) with the Andromeda search engine2. The higher-energy collisional dissociation (HCD) MS/MS spe ctra were searched against an in silico tryptic digest of Homo sapiens proteins from the UniProt/Swiss-Prot sequence databas e (v. July 2019), including common contaminant proteins. All MS/MS spectra were searched with the following MaxQuant parameters: acetyl (protein N -terminus) and methionine oxidation as variable modifications; cysteine carbamidomethylation was set as fixed modification for all samples, exc ept for the SDT samples in which case carbamidomethylation was set as variable modification; max 2 missed cleavages; and precursors were initially matched to 4. 5 ppm tolerance and 20 ppm for fragment spectra. Peptide spectrum matches and proteins were automatically filtered to a 1% false discovery rate based on Andromeda score, pep tide length, and individual peptide mass errors. Processing was conducted without a match between runs.
Proteins were identified and quantified based on at least two unique peptides and based on the label -free quantification (LFQ) 3 values reported by Ma xQu ant. Every data set contained three sets of four replicates (one set for DMSO treated samples, one set for 50 nM and one set for 100 nM). Proteins were excluded from analysis if within all three sets, there were less than three samples with directly detect ed and quantified protein. After this filtering step, missing values were replaced from a normal distribution.
Sample preparation: 106 Ramos cells were treated in three replicates with 100 nM compound for 2 hours. Cells were then washed twice by centrifuge at 200 rcf, 4°C for 5 minutes, removing the supernatant and washed with ice cold PBS. Samples were then centrifuged at 200 rcf, 4°C for 5 minutes, then supernatant was removed and samples were frozen at -80°C. Samples were dispersed in 100 µl of PBS. From each sample, 20 µ l were mixed with 20 µl of 10% SDS in 50 mM ammonium bicarbonate, heated to 96 ° C for 5 minutes, and the protein concentration was measured by BCA ass ay. Another 75 µ l were mixed with 0.5 mL of 50% acetonitrile:water, sonicated 3 times 10 second s on ice, centrifuged for 10 minutes at 15000 rpm at 4°C, and the supernatant was transferred to a new tube and lyophilized.
The residue was dissolved in 25% acetonitrile in water in a volume calculated from the BCA assay to obtain a con centration equivalent to 1.09 µg / µl protein. The samples were centrifuged at 21,000 g for 5 min utes to remove insoluble material. Standard curves from 0.1-100 ng/mL for each compound were used for quantitation.
The LC–MS/MS instrument consi sted of an Acquit y I-class UPLC system (Waters) and Xevo TQ-XS triple quadrupole mass spectrometer (Waters) equipped with an electrospray ion source. Chromatographic separation was done on UPLC BEH C18 column (50mm × 2.1mm, 1.7-µm, Waters) using 50-100% gradient of 95%-aqueous acetonitrile with 0.1% formic acid in aqueous 0.1% formic acid during 2.5 minut e s, with a flow rate of 0. 3 mL min−1 and column temperature 30°C. Samples kept at 10°C were automatically injected in a volume of 3µl.
MS parameters (positive ion mode): capillary voltage - 2. 0kV, source temperature - […]
Targeting BTK in CLL cells
After signing an informed consent form approved by the Tel Aviv Medical Center IRB according to the Helsinki Accords, blood samples were collected from pat ients fulfilling the standard criteria for CLL. Peripheral blood mononuclear cells (PBMC) were isolated by Ficoll (Uppsala, Sweden) density-gradient centrifugation. Viable frozen cells were kept in FCS (Biological Industries, Beit-Haemek, Israel) containing 10% DMSO (Merck, Darmstadt, Germany) and stored in liquid nitrogen. Before use, frozen cells were thawed and cultured at 37°C, 5% CO 2, in RPMI medium supplemented with 10% FCS, penicillin, streptomycin, and L-glutamine (all from Biological Industries, Be it-Haemek, Israel.) […]

The next series concerns primary mouse B cells. In words: B cell activation after anti-IgM stimulation, CD86 staining. In kind it is cell-based. As to the method:
Lastly, we assessed the ability of the PROTACs to abrogate the activation of primary mouse B cells in response to B cell receptor stimulation. For this purpose, primary B cells were treated with anti-IgM for 18 h,[36],[37] followed by staining for CD86, a B cell activation surface marker (Figure 8; Supporting Figure 7). […]
supplemented with 300 mM imidazole). The His tag was cleaved by the addition of TEV protease with concomitant dialysis overnight into cleavage buffer (50 mM Tris, pH 8.0, 0.5 mM EDTA, 1 mM DTT) at 4°C. The resulting soluble protein was passed ov er Ni -NTA beads to remove the protease and purified further by gel filtration on a HiLoad_16/60_Superdex_75 (GE Healthcare) column equilibrated with 20 mM Tris, pH 8.0, 50 mM NaCl, 1 mM DTT. The pure protein was then flash-frozen in liquid nitrogen and stored at −80°C.
C57BL/6 mice were purchased from Harlan (Rehovot, Israel) and maintained in a pathogen-free facility, experiments were carried on 8-12 weeks old male mice. All exp eriments with mice were approved by the Weizmann Institute Animal Care and Use Committee.
Splenic cells from C57BL/6 mice were isolated by forcing spleen tissue through mesh into PBS containing 2% fetal calf serum and 1 mM EDTA and red blood cells were depleted by lysis buffer. Cells were cultured in 96-well U-b ottom dishes (1x10^6 cells/m L in RPMI 10% […]
nM, 10 nM, 1 nM, 0.1 nM) for 24 hours at 37° C in 5% humidified CO2 incubator. Following a 24 hours incubation, cells were stimulated with anti-IgM overnight (5 µg/mL, Sigma-Aldrich). Subsequently, cells were stained with anti-B220 (clone RA3-6B2, Biolegend) and anti-CD86 (clone GL-1, Biolegend) antibodies for 30 minutes at 4°C. Single cell suspensions were analyzed by a flow cytometer (CytoFlex, Beckman Coulter).
Cells were analyzed by intensity based, label-free mass spectrometry based proteomics.
Sample preparation: 106 Ramos cells were treated in four replicates with either compound or DMSO for 24 hours. Cells were then washed twice by centrifuge at 200 rcf, 4°C for 5 minutes, removing the supernatant and washed with ice cold PBS. Samp les were then centrifuged at 200 rcf, 4°C for 5 minutes, then supernatant was removed and samples were frozen at -80°C.
Samples were dispersed in 75 µl of 50 mM ammonium bicarbonate, and transferred to 1.8 mL glass vials. 75 µl of 10% SDS in 50 mM ammonium bicarbonate were added and the samples were heated to 96° C for 6 minutes. The samples were sonicated thoroughly in a sonication bath until the DNA was sheared as indicated by reduction in viscosity to level enabling easy pipettation. Total protein concentration was estimated using BCA as say and 30 µg from each sample was taken for the experiment.

[1] abbreviates: anti-IgM stimulation, PROTAC 24 h.

Some results are limits rather than exact numbers.

`Nc1ncnc2c1c(-c1ccc(Oc3ccccc3)cc1)nn2C1CCCN(C(=O)C=CCCCCOCCOCCOCCOCCOc2cccc3c2C(=O)N(C2CCC(=O)NC2=O)C3=O)C1` (stereo not drawn) [IR-2]: in the series on C481S BTK, the “fold reduction in potency, C481S vs wild-type BTK” value (“fold reduction in potency, C481S” for short) is listed as “only slight sensitivity to the mutation”. In addition, in the series with Ramos cells, the Effective cellular concentration is 4.1 ± 0.7 pg compound / µg total protein. In the series with primary mouse B cells (setting [1]), the “inhibition of B cell activation (CD86)” value is reported as “strongest effect” and the “inhibition of B cell activation compared to ibrutinib” value (“inhibition … compared to ibrutinib” for short) is recorded as “superior inhibition compared to ibrutinib”.
Turning to `Nc1ncnc2c1c(-c1ccc(Oc3ccccc3)cc1)nn2C1CCCN(C(=O)CCCCCCOCCOCCOCCOCCOc2cccc3c2C(=O)N(C2CCC(=O)NC2=O)C3=O)C1` (stereo not drawn) [NC-1], the “fold reduction in potency, C481S” value in the series with C481S BTK is given as under 2 fold. Also, in the series with Ramos cells, the Effective cellular concentration is 8.6 ± 2.6 pg compound / µg total protein, the “effective cellular concentration relative to IR-2” value is recorded as about 2 times and the “effective cellular concentration relative to RC-2” value is on record as about 10 times. In the series with primary mouse B cells (setting [1]), the “inhibition of B cell activation (CD86)” value was “strongest effect” and the “inhibition … compared to ibrutinib” value is on record as “superior inhibition compared to ibrutinib”.
In the case of `N#CC(=CCCCCOCCOCCOCCOCCOc1cccc2c1C(=O)N(C1CCC(=O)NC1=O)C2=O)C(=O)N1CCCC(n2nc(-c3ccc(Oc4ccccc4)cc3)c3c(N)ncnc32)C1` (stereo not drawn) [RC-2], the “fold reduction in potency, C481S” value in the series on C481S BTK is listed as 68 fold. Further, the Effective cellular concentration in the series with Ramos cells is 0.93 ± 0.06 pg compound / µg total protein. Also, in the series with primary mouse B cells (at 1 μM), the “inhibition … compared to ibrutinib” value is “superior activity to ibrutinib”.
For the compound `CC(C)(C=C(C#N)C(=O)N1CCCC(n2nc(-c3ccc(Oc4ccccc4)cc3)c3c(N)ncnc32)C1)CCCOCCOCCOCCOCCOc1cccc2c1C(=O)N(C1CCC(=O)NC1=O)C2=O` (stereo not drawn) [RC-3], the “fold reduction in potency, C481S” value with C481S BTK is reported as over 1000 fold. For the same compound, in the series on Ramos cells, the Effective cellular concentration was 10.7 ± 3.1 pg compound / µg total protein, the “effective cellular concentration relative to IR-2” value is listed as about 2 times and the “effective cellular concentration relative to RC-2” value is reported as about 10 times. Moreover, the “inhibition … compared to ibrutinib” value in the series on primary mouse B cells (at 1 μM) is “superior activity to ibrutinib”.
